Reference: US20050148553A1, “Use of tigecycline, alone, or in combination with rifampin to treat osteomyelitis and/or septic arthritis” (priority 2003, published 2005)

Experiment: Whole body autoradiography after 30-minute 3 mg/kg IV infusion of [^14C]-tigecycline
Assay type: in vivo, Sprague-Dawley rats
Experimental: Male Sprague-Dawley and Long-Evans rats were obtained from Charles River Breeding Laboratories, Raleigh, N.C., and were quarantined for at least one week prior to the start of the study. […] The dosing solution was diluted and radioassayed directly in Ultima Gold scintillation counting cocktail (Packard Inc.). […] All pumps were calibrated prior to the administration of the compound. Rats were anesthetized with isoflurane prior to cardiac puncture exsanguination at the prescribed times after dosing. […] Control whole blood was collected from male Sprague-Dawley rats into tubes containing sodium heparin. Pooled blood was used to prepare the calibration standards and quality control samples. The standards were used to construct the standard curve for the quantification of radiolabeled drug distribution in tissues of whole blood cryosections. The quality controls, which were embedded in the same CMC block with each rat, were used for assessing intra- and inter-section variation in the thickness of rat whole-body cryosections. […] Immediately following euthanasia, each rat was totally immersed in a bath of hexane and dry ice (−75° C.) until frozen. Each carcass was dried and stored at −30° C. until embedded. […] Each frozen rat was sagitally sectioned at −20° C. A sufficient number of sections were collected to ensure sampling of all tissues of interest. The sections were dehydrated overnight in a cryochamber and then rapidly transferred to a dessicator containing CaSO4 to prevent condensation of atmospheric moisture while equilibrating to room temperature. The sections were mounted on cardboard and labeled with [^14C]-labeled black ink with a unique identification number. […] A small piece of Scotch tape was placed over the dried radioactive ink to prevent the contamination of the storage phosphor screens. Phosphor imaging plates, BAS-SR 2025 (Fuji Photo Film Co., Japan) were exposed to bright visible light for 20 minutes using an IP eraser (Raytest, USA Inc., New Castle, Del.) to remove background radiation. Sections and calibration blood standards were concurrently placed in direct contact with Ips and exposed for 7 days. All sections were stored at room temperature in a lead shielding box to minimize background levels. Phosphor images were generated using a Fujifilm BAS-5000 Bio-Imaging Analyzer and quantitated by MCID M2 Software, version 3.2 (Imaging Research Inc., St. Catherines, Ontario, Canada). The STDs and QCs were analyzed using the circular sampling tool in the MCID software program. Areas of interest in whole-body sections were manually outlined with the regional sampling tool to generate count data. Radioactive concentrations in select tissues were determined by digital analysis of the resulting autoradiograms on the basis of a calibration curve. […] The linear regression curve was then used to determine the concentration of unknown radioactivity of study samples. […] Blood samples were combusted using a Model 307 sample oxidizer (Packard Instrument Company). […] Research Triangle Park, N.C.), which applies a model-independent approach and standard procedures as described in Gibaldi and Perrier. Gibaldi, Pharmacokinetics, 1982. […] For IV infusion dosing, C30 min was the concentration at 30 minutes, the first sampling time point. The maximum plasma concentration (Cmax) and the corresponding time of peak concentration following IV administration were obtained directly by numerical inspection from the individual concentration-time data. The terminal half-life was calculated by the ratio of ln2/λz where λz is derived from the terminal slope of the concentration time curve. The area under the plasma concentration versus time curve from zero to infinity was calculated using the trapezoidal rule, where Clast is the last measurable plasma concentration. […]

CN(C)c1cc(NC(=O)CNC(C)(C)C)c(O)c2c1C[C@H]1C[C@H]3[C@H](N(C)C)C(O)=C(C(N)=O)C(=O)[C@@]3(O)C(O)=C1C2=O [[^14C]-Tigecycline]
AUC (Adrenal Gland): 29515 Ng eq hr/g
Mean concentration of total radioactivity (Adrenal Gland, 0.5 Hrs): 3580 ng equiv./g
Tissue:Plasma Ratio (Adrenal Gland, 0.5 Hrs): 4.00
Mean concentration of total radioactivity (Adrenal Gland, 8.5 Hrs): 941 ng equiv./g
Tissue:Plasma Ratio (Adrenal Gland, 8.5 Hrs): 1.87
Mean concentration of total radioactivity (Adrenal Gland, 24 Hrs): 68.9 ng equiv./g
Tissue:Plasma Ratio (Adrenal Gland, 24 Hrs): 4.67
Mean concentration of total radioactivity (Adrenal Gland, 72 Hrs): 19.3 ng equiv./g
Tissue:Plasma Ratio (Adrenal Gland, 72 Hrs): 4.47
Mean concentration of total radioactivity (Adrenal Gland, 168 Hrs): <5.10 ng equiv./g
Mean concentration of total radioactivity (Adrenal Gland, 336 Hrs): <5.10 ng equiv./g
AUC (Adrenal Gland, first AUC column): 29153 Ng eq hr/g
AUC (Blood): 1261 Ng eq hr/g
Tissue:Plasma Ratio (Blood, 0.5 Hrs): 1.43
Tissue:Plasma Ratio (Blood, 8.5 Hrs): 1.24
Tissue:Plasma Ratio (Blood, 24 Hrs): 3.01
Tissue:Plasma Ratio (Blood, 72 Hrs): 2.74
AUC (Blood, first AUC column): 12063 Ng eq hr/g
AUC (Bone): 794704 Ng eq hr/g
AUC (Bone Marrow): 47468 Ng eq hr/g
Mean concentration of total radioactivity (Bone Marrow, 0.5 Hrs): 4376 ng equiv./g
Tissue:Plasma Ratio (Bone Marrow, 0.5 Hrs): 4.89
Mean concentration of total radioactivity (Bone Marrow, 8.5 Hrs): 1562 ng equiv./g
Tissue:Plasma Ratio (Bone Marrow, 8.5 Hrs): 3.10
Mean concentration of total radioactivity (Bone Marrow, 24 Hrs): 291 ng equiv./g
Tissue:Plasma Ratio (Bone Marrow, 24 Hrs): 19.7
Mean concentration of total radioactivity (Bone Marrow, 72 Hrs): 22.5 ng equiv./g
Tissue:Plasma Ratio (Bone Marrow, 72 Hrs): 5.21
Mean concentration of total radioactivity (Bone Marrow, 168 Hrs): <5.10 ng equiv./g
Mean concentration of total radioactivity (Bone Marrow, 336 Hrs): <5.10 ng equiv./g
AUC (Bone Marrow, first AUC column): 47116 Ng eq hr/g
Mean concentration of total radioactivity (Bone, 0.5 Hrs): 3312 ng equiv./g
Tissue:Plasma Ratio (Bone, 0.5 Hrs): 3.70
Mean concentration of total radioactivity (Bone, 8.5 Hrs): 3794 ng equiv./g
Tissue:Plasma Ratio (Bone, 8.5 Hrs): 7.53
Mean concentration of total radioactivity (Bone, 24 Hrs): 2711 ng equiv./g
Tissue:Plasma Ratio (Bone, 24 Hrs): 184
Mean concentration of total radioactivity (Bone, 72 Hrs): 1787 ng equiv./g
Tissue:Plasma Ratio (Bone, 72 Hrs): 414
Mean concentration of total radioactivity (Bone, 168 Hrs): 1526 ng equiv./g
Mean concentration of total radioactivity (Bone, 336 Hrs): 720 ng equiv./g
AUC (Bone, first AUC column): 569498 Ng eq hr/g
AUC (Brain): 2865 Ng eq hr/g
Cmax (Brain): 54 Ng equiv/g
Mean concentration of total radioactivity (Brain, 0.5 Hrs): 35.8 ng equiv./g
Tissue:Plasma Ratio (Brain, 0.5 Hrs): 0.040
Mean concentration of total radioactivity (Brain, 8.5 Hrs): 54.3 ng equiv./g
Tissue:Plasma Ratio (Brain, 8.5 Hrs): 0.108
Mean concentration of total radioactivity (Brain, 24 Hrs): 35.8 ng equiv./g
Tissue:Plasma Ratio (Brain, 24 Hrs): 2.42
Mean concentration of total radioactivity (Brain, 72 Hrs): 13.3 ng equiv./g
Tissue:Plasma Ratio (Brain, 72 Hrs): 3.10
Mean concentration of total radioactivity (Brain, 168 Hrs): <5.10 ng equiv./g
Mean concentration of total radioactivity (Brain, 336 Hrs): <5.10 ng equiv./g
AUC (Brain, first AUC column): 2256 Ng eq hr/g
AUC (Eyes): 3221 Ng eq hr/g
Cmax (Eyes): 108 Ng equiv/g
Mean concentration of total radioactivity (Eyes, 0.5 Hrs): 106 ng equiv./g
Tissue:Plasma Ratio (Eyes, 0.5 Hrs): 0.118
Mean concentration of total radioactivity (Eyes, 8.5 Hrs): 108 ng equiv./g
Tissue:Plasma Ratio (Eyes, 8.5 Hrs): 0.215
Mean concentration of total radioactivity (Eyes, 24 Hrs): 36.6 ng equiv./g
Tissue:Plasma Ratio (Eyes, 24 Hrs): 2.46
Mean concentration of total radioactivity (Eyes, 72 Hrs): 6.76 ng equiv./g
Tissue:Plasma Ratio (Eyes, 72 Hrs): 1.57
Mean concentration of total radioactivity (Eyes, 168 Hrs): <5.10 ng equiv./g
Mean concentration of total radioactivity (Eyes, 336 Hrs): <5.10 ng equiv./g
AUC (Eyes, first AUC column): 3060 Ng eq hr/g
AUC (Fat): 3500 Ng eq hr/g
Mean concentration of total radioactivity (Fat, 0.5 Hrs): 450 ng equiv./g
Tissue:Plasma Ratio (Fat, 0.5 Hrs): 0.50
Mean concentration of total radioactivity (Fat, 8.5 Hrs): 144 ng equiv./g
Tissue:Plasma Ratio (Fat, 8.5 Hrs): 0.287
Mean concentration of total radioactivity (Fat, 24 Hrs): <5.1 ng equiv./g
Mean concentration of total radioactivity (Fat, 72 Hrs): <5.10 ng equiv./g
Mean concentration of total radioactivity (Fat, 168 Hrs): <5.10 ng equiv./g
Mean concentration of total radioactivity (Fat, 336 Hrs): <5.10 ng equiv./g
AUC (Fat, first AUC column): 2489 Ng eq hr/g
AUC (Heart): 40179 Ng eq hr/g
Mean concentration of total radioactivity (Heart, 0.5 Hrs): 5657 ng equiv./g
Tissue:Plasma Ratio (Heart, 0.5 Hrs): 6.32
Mean concentration of total radioactivity (Heart, 8.5 Hrs): 1138 ng equiv./g
Tissue:Plasma Ratio (Heart, 8.5 Hrs): 2.26
Mean concentration of total radioactivity (Heart, 24 Hrs): 69.9 ng equiv./g
Tissue:Plasma Ratio (Heart, 24 Hrs): 4.74
Mean concentration of total radioactivity (Heart, 72 Hrs): 6.98 ng equiv./g
Tissue:Plasma Ratio (Heart, 72 Hrs): 1.62
Mean concentration of total radioactivity (Heart, 168 Hrs): <5.10 ng equiv./g
Mean concentration of total radioactivity (Heart, 336 Hrs): <5.10 ng equiv./g
AUC (Heart, first AUC column): 40083 Ng eq hr/g
AUC (Kidney): 70704 Ng eq hr/g
Cmax (Kidney): 7601 Ng equiv/g
Mean concentration of total radioactivity (Kidney, 0.5 Hrs): 7601 ng equiv./g
Tissue:Plasma Ratio (Kidney, 0.5 Hrs): 8.49
Mean concentration of total radioactivity (Kidney, 8.5 Hrs): 1725 ng equiv./g
Tissue:Plasma Ratio (Kidney, 8.5 Hrs): 3.42
Mean concentration of total radioactivity (Kidney, 24 Hrs): 140 ng equiv./g
Tissue:Plasma Ratio (Kidney, 24 Hrs): 9.49
Mean concentration of total radioactivity (Kidney, 72 Hrs): 47.9 ng equiv./g
Tissue:Plasma Ratio (Kidney, 72 Hrs): 11.1
Mean concentration of total radioactivity (Kidney, 168 Hrs): 41.3 ng equiv./g
Mean concentration of total radioactivity (Kidney, 336 Hrs): 13.9 ng equiv./g
AUC (Kidney, first AUC column): 68333 Ng eq hr/g
AUC (Liver): 53527 Ng eq hr/g
Cmax (Liver): 7300 Ng equiv/g
Mean concentration of total radioactivity (Liver, 0.5 Hrs): 7300 ng equiv./g
Tissue:Plasma Ratio (Liver, 0.5 Hrs): 8.16
Mean concentration of total radioactivity (Liver, 8.5 Hrs): 1192 ng equiv./g
Tissue:Plasma Ratio (Liver, 8.5 Hrs): 2.37
